Like-named read-outs stand apart in the source and are kept apart here.

For assay [1], the target named is Pim-1 (Homo sapiens (Human), UniProt P11309). Description: Pim enzyme assay (HTRF, phosphorylation of biotinylated-BAD (S112) peptide), Pim-1. It is filed as biochemical. The method in brief: (§1)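 Full-length human Pim-1 or Pim-2 with an N-terminal His6 tag, expressed in Sf9 or E. coli and purified as monomer. HTRF read-out: biotinylated BAD (S112) peptide phosphorylation detected with streptavidin-APC plus Eu-anti-phospho-BAD(S112) antibody, excitation 337 nm, emission 665 nm.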
Sequence of Pim-1 (P11309 whole entry): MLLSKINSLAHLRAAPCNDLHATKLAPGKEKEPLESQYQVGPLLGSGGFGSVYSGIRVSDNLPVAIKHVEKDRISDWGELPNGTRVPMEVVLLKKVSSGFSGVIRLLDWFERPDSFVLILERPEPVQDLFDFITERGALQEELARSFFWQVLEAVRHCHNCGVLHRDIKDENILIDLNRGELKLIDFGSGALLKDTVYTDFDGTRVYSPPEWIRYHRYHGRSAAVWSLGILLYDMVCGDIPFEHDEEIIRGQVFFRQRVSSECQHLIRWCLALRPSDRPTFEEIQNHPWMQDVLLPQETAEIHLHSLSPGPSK

Assay [2] deals with Pim-2 (Homo sapiens (Human), UniProt Q9P1W9). Nature of the assay: Pim enzyme assay (HTRF, phosphorylation of biotinylated-BAD (S112) peptide), Pim-2. The class given is biochemical. The method in brief:
as §1

The subject of assay [3] is KMS-12-BM myeloma cell line. Description: Pim cell assay: phospho-BAD (S112) and total BAD in KMS-12-BM cells. The conditions noted are these: 1 hour and 50 minutes incubation. The class given is cell-based. As for the experimental part:
The KMS-12-BM myeloma cell line was used to determine the in vitro cellular inhibition of Pim kinases. Disruption of Pim signaling by Pim inhibitors was determined by measuring the levels of phospho-BAD (S112) and total BAD. […] The cells were then incubated overnight at 37° C., 5% CO2. […] In addition to the 10-point dosing curve of the test compound, DMSO alone was run as a control. This dilution in DMSO was then diluted again into cell growth medium. Aliquots (11.1 uL) of the compound diluted in growth medium were then transferred to the appropriate wells of the 96-well plates containing cells to yield a final DMSO concentration of 0.3%. The cell plates were then incubated with compound for 1 hour and 50 minutes at 37° C., 5% CO2. After the 1 hour and 50 min incubation, the cell plates were spun at 1000 RPM for 10 minutes and the compound-containing medium was removed. […] The cell plates containing lysis buffer were then immediately stored at −70° C. These prepared lysates were then assayed for phospho-(S112) and total-BAD according to the manufacturer's protocol (Meso Scale Diagnostics, Cat # K15103D-3). The plates were read on the MSD Sector Imager 6000, and results were calculated according to the assay protocol: ((% Phosphoprotein=((2×Phospho signal)/(Phospho signal+Total signal))×100)).

Setting [4] is: full length recombinant Pim-1, biotinylated-BAD (S112) peptide, HTRF, 96-well, read-out: Pim-1 IC50 IP.
[5] abbreviates: Homo sapiens, KMS-12-BM, read-out: KMS-12-BM IC50 IP.
Setting [6] is: full length recombinant Pim-1, biotinylated-BAD (S112) peptide, HTRF, read-out: Pim_1_IC50.
Where [7] appears, read: full length recombinant Pim-2, biotinylated-BAD (S112) peptide, HTRF, read-out: Pim2_IC50.
The mark [8] stands for this setting: Homo sapiens, KMS-12-BM, read-out: KMS12_Cell_IC50.
Setting [9] is: full length recombinant Pim-2, biotinylated-BAD (S112) peptide, HTRF, 96-well, read-out: Pim-2 IC50 IP.

Sequence of Pim-2 (Q9P1W9 whole entry): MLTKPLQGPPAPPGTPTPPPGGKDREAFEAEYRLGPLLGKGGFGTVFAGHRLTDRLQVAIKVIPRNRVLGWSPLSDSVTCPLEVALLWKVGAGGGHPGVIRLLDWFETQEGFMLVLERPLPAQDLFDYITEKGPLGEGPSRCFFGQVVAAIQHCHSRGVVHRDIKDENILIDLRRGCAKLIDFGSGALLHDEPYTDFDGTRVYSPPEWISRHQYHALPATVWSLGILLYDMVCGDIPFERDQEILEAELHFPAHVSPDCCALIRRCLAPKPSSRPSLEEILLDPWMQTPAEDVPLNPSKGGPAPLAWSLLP

For `N[C@H]1CCCN(c2ccncc2Nc2nnc3ccc(-c4ncccc4F)nn23)C1` [Example 91, N-(4-((3S)-3-amino-1-piperidinyl)-3-pyridinyl)-6-(3-fluoro-2-pyridinyl)[1,2,4]triazolo[4,3-b]pyridazin-3-amine bis(2,2,2-trifluoroacetate)], the figures for the IC50 in assay [1] (setting [4]), in assay [2] (read-out: Pim-2 IC50 IP) and in assay [3] (setting [5]) were 5.6 nM, 30.5 nM and 11300 nM, respectively.

With `C[C@H]1CCN(c2ccncc2Nc2ncc3ccc(-c4c(F)cccc4F)nn23)C[C@H]1N` (single isomer, unassigned) [Example 98, N-(4-((cis)-3-amino-4-methylpiperidin-1-yl)pyridin-3-yl)-2-(2,6-difluorophenyl)imidazo[1,5-b]pyridazin-7-amine bis(2,2,2-trifluoroacetate)], the IC50 was 2.8 nM in assay [1] (read-out: Pim-1 IC50 IP); 15.7 nM in assay [2] (read-out: Pim-2 IC50 IP); 12100 nM in assay [3] (bis(2,2,2-trifluoroacetate), read-out: KMS-12-BM IC50 IP).

Take `C[C@H]1CN(c2ccncc2Nc2ncc3ccc(-c4ccc(S(C)(=O)=O)cc4F)nn23)C[C@@H](N)[C@@H]1O` [Example 23, (3R,4R,5S)-3-amino-1-(3-((2-(2-fluoro-4-(methylsulfonyl)phenyl)imidazo[1,5-b]pyridazin-7-yl)amino)-4-pyridinyl)-5-methyl-4-piperidinol]: the IC50 in assay [1] (setting [6]) stood at 0.1 nM; in assay [2] (setting [7]) it was 0.5 nM; in assay [3] (setting [8]) it was 1400 nM.

Regarding `C[C@H]1CN(c2ccncc2Nc2ncc3ccc(-c4c(F)cccc4F)nn23)C[C@@H](N)[C@@H]1O` [Example 20, (3R,4R,5S)-3-amino-1-(3-((2-(2,6-difluorophenyl)imidazo[1,5-b]pyridazin-7-yl)amino)-4-pyridinyl)-5-methyl-4-piperidinol], the IC50 in assay [1] (setting [6]) is 0.04 nM; in assay [2] (setting [7]) it was 0.08 nM; in assay [3] (setting [8]), 40 nM.

In the case of `Clc1ccccc1-c1ccc2cnc(Nc3cnccc3O[C@H]3CCCNC3)n2n1` [Example 16, 2-(2-chlorophenyl)-N-(4-((3S)-3-piperidinyloxy)-3-pyridinyl)imidazo[1,5-b]pyridazin-7-amine bis(2,2,2-trifluoroacetate)], the IC50 is 44 nM in assay [1] (setting [6]), 298 nM in assay [2] (setting [7]) and more than 1000 nM in assay [3] (setting [8]).

Take `CN(C)C(=O)c1ccc(F)c(-c2ccc3cnc(Nc4cnccc4N4CCC[C@H](N)C4)n3n2)c1` [Example 89, (S)-3-(7-((4-(3-aminopiperidin-1-yl)pyridin-3-yl)amino)imidazo[1,5-b]pyridazin-2-yl)-4-fluoro-N,N-dimethylbenzamide tetra(2,2,2-trifluoroacetate)]: the IC50 in assay [1] (setting [4]) worked out at 3.5 nM; in assay [2] (setting [9]), 5.3 nM; in assay [3] (setting [5]), 1350 nM.

For `C[C@@H]1CCN(c2ccncc2Nc2ncc3ccc(-c4c(F)cccc4F)nn23)C[C@H]1N` (single isomer, unassigned) [Example 101, N-(4-((trans)-3-amino-4-methylpiperidin-1-yl)pyridin-3-yl)-2-(2,6-difluorophenyl)imidazo[1,5-b]pyridazin-7-amine tris(2,2,2-trifluoroacetate)], the IC50 in assay [1] (setting [4]) stood at 7.6 nM; in assay [2] (setting [9]), 32.4 nM; in assay [3] (tris(2,2,2-trifluoroacetate), read-out: KMS-12-BM IC50 IP), 6930 nM.

In the case of `N[C@H]1CCCN(c2ncncc2Nc2ncc3ccc(-c4c(F)cccc4F)nn23)C1` [Example 36, (S)-N-(4-((3S)-3-amino-1-piperidinyl)-5-pyrimidinyl)-2-(2,6-difluorophenyl)imidazo[1,5-b]pyridazin-7-amine], the results for the IC50 in assay [1] (setting [4]), in assay [2] (setting [9]) and in assay [3] (setting [5]) were 19.2 nM, 110 nM and more than 31600 nM, respectively.

`N[C@H]1CCCN(c2ccncc2Nc2ncc3ccc(-c4c(F)cccc4F)nn23)C1` [Example 1, N-(4-((3S)-3-amino-1-piperidinyl)-3-pyridinyl)-2-(2,6-difluorophenyl)imidazo[1,5-b]pyridazin-7-amine tris(2,2,2-trifluoroacetate)]: the IC50 turned out to be 0.08 nM in assay [1] (setting [6]), 0.5 nM in assay [2] (read-out: Pim2_IC50) and 428 nM in assay [3] (setting [8]).

Take `N[C@H]1CCCN(c2ccncc2Nc2ncc3ccc(-c4ccccn4)nn23)C1` [Example 64, (S)-N-(4-(3-aminopiperidin-1-yl)pyridin-3-yl)-2-(pyridin-2-yl)imidazo[1,5-b]pyridazin-7-amine]: the values for the IC50 in assay [1] (setting [4]), in assay [2] (setting [9]) and in assay [3] (setting [5]) were 1.5 nM, 6.4 nM and 1760 nM, respectively.

As for `N[C@H]1CCCN(c2ccncc2Nc2ncc3ccc(-c4cccnc4F)nn23)C1` [Example 7, N-(4-((3S)-3-amino-1-piperidinyl)-3-pyridinyl)-2-(2-fluoro-3-pyridinyl)imidazo[1,5-b]pyridazin-7-amine], the IC50 in assay [1] (setting [6]) is 0.9 nM; in assay [2] (setting [7]), 12 nM; in assay [3] (setting [8]), 6600 nM.

For the compound `C[C@H]1CN(c2ccncc2Nc2ncc3ccc(-c4nccs4)nn23)C[C@@H](N)[C@@H]1O` [Example 21, (3R,4R,5S)-3-amino-5-methyl-1-(3-((2-(1,3-thiazol-2-yl)imidazo[1,5-b]pyridazin-7-yl)amino)-4-pyridinyl)-4-piperidinol], the IC50 is 0.3 nM in assay [1] (setting [6]), 0.6 nM in assay [2] (setting [7]) and 209 nM in assay [3] (setting [8]).

On to `C[C@@H]1C[C@H](N)CN(c2ccncc2Nc2nnc3ccc(-c4ncccc4F)nn23)C1` [Example 92, N-(4-((3S,5R)-3-amino-5-methyl-1-piperidinyl)-3-pyridinyl)-6-(3-fluoro-2-pyridinyl)[1,2,4]triazolo[4,3-b]pyridazin-3-amine], for which the results for the IC50 in assay [1] (setting [4]), in assay [2] (setting [9]) and in assay [3] (setting [5]) were 1.6 nM, 10.6 nM and 2200 nM, respectively.

On to `N[C@H]1C[C@@H](F)CN(c2ccncc2Nc2ncc3ccc(-c4c(F)cccc4F)nn23)C1` [Example 48, N-(4-((3S,5R)-3-amino-5-fluoropiperidin-1-yl)pyridin-3-yl)-2-(2,6-difluorophenyl)imidazo[1,5-b]pyridazin-7-amine tris(2,2,2-trifluoroacetate)], for which the IC50 in assay [1] (setting [4]) is 0.8 nM; in assay [2] (setting [9]) it was 3.2 nM; in assay [3] (setting [5]), 983 nM.

As to `N[C@H]1CCCN(c2ccncc2Nc2ncc3ccc(-c4ccc(F)cc4F)nn23)C1` [Example 12, N-(4-((3S)-3-amino-1-piperidinyl)-3-pyridinyl)-2-(2,4-difluorophenyl)imidazo[1,5-b]pyridazin-7-amine], the figures for the IC50 in assay [1] (setting [6]), in assay [2] (setting [7]) and in assay [3] (setting [8]) were 0.4 nM, 3 nM and 1760 nM, respectively.

In the case of `N[C@H]1CCCN(c2ccncc2Nc2ncc3ccc(-c4nccs4)nn23)C1` [Example 8, N-(4-((3S)-3-amino-1-piperidinyl)-3-pyridinyl)-2-(1,3-thiazol-2-yl)imidazo[1,5-b]pyridazin-7-amine], the IC50 was determined as 1 nM in assay [1] (setting [6]), 3 nM in assay [2] (setting [7]) and 726 nM in assay [3] (setting [8]).

Turning to `Nc1cccc(-c2ccncc2Nc2ncc3ccc(-c4c(F)cccc4F)nn23)c1` [Example 27, N-(4-(3-aminophenyl)-3-pyridinyl)-2-(2,6-difluorophenyl)imidazo[1,5-b]pyridazin-7-amine], the results for the IC50 in assay [1] (setting [6]), in assay [2] (setting [7]) and in assay [3] (setting [8]) were 9 nM, 121 nM and more than 1000 nM, respectively.

In the case of `C[C@H]1CN(c2ccncc2Nc2ncc3ccc(-c4ncccc4F)nn23)C[C@@H](N)[C@@H]1O` [Example 66, (3R,4R,5S)-3-amino-1-(3-((2-(3-fluoropyridin-2-yl)imidazo[1,5-b]pyridazin-7-yl)amino)pyridin-4-yl)-5-methylpiperidin-4-ol], the IC50 in assay [1] (setting [4]) stood at 0.3 nM; in assay [2] (setting [9]), 1.3 nM; in assay [3] (setting [5]), 115 nM.

`N[C@H]1C[C@@H](F)CN(c2ccncc2Nc2ncc3ccc(-c4ncccc4F)nn23)C1` [Example 53, N-(4-((3S,5R)-3-amino-5-fluoro-1-piperidinyl)-3-pyridinyl)-2-(3-fluoro-2-pyridinyl)imidazo[1,5-b]pyridazin-7-amine]: the figures for the IC50 in assay [1] (setting [4]), in assay [2] (setting [9]) and in assay [3] (setting [5]) were 3.4 nM, 10.9 nM and 1200 nM, respectively.

In the case of `O[C@H]1CCN(c2ccncc2Nc2ncc3ccc(-c4c(F)cccc4F)nn23)C[C@@H]1O` (mixture of isomers) [Example 25, (3S,4S)-1-(3-((2-(2,6-difluorophenyl)imidazo[1,5-b]pyridazin-7-yl)amino)-4-pyridinyl)-3,4-piperidinediol and (3R,4R)-1-(3-((2-(2,6-difluorophenyl)imidazo[1,5-b]pyridazin-7-yl)amino)-4-pyridinyl)-3,4-piperidinediol (1/1)], the IC50 in assay [1] (read-out: Pim_1_IC50) worked out at 2 nM; in assay [2] (read-out: Pim2_IC50), 8 nM; in assay [3] (read-out: KMS12_Cell_IC50) it was 777 nM.

The record behind these values is patent publication US9187486B2 (AMGEN INC., priority 2011, dated 2015).
